The results in this text go back to ChEMBL document CHEMBL1140203, “cis-4-(Piperazin-1-yl)-5,6,7a,8,9,10,11,11a-octahydrobenzofuro[2,3-h]quinazolin-2-amine (A-987306), a new histamine H4R antagonist that blocks pain responses against carrageenan-induced hyperalgesia” (J Med Chem, 2008).

Among the targets are Vasopressin V1a receptor (Homo sapiens, UniProt P37288); Histamine H2 receptor (Homo sapiens, UniProt P25021); Histamine H1 receptor (Homo sapiens, UniProt P35367).
The target of the next data set is T1, Thromboxane A2 receptor (Homo sapiens, UniProt P21731).
T1 sequence (P21731 whole entry): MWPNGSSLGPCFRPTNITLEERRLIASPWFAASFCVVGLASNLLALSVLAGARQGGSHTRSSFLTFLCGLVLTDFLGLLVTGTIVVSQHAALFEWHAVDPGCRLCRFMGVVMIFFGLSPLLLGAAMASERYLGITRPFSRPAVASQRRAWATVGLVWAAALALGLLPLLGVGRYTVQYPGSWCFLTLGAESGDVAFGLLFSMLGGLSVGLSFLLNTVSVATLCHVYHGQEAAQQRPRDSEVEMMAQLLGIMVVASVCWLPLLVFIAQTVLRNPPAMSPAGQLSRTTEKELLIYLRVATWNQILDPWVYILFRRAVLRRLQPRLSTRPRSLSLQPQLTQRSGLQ

Data set [1] deals with 5-hydroxytryptamine receptor 2B (Homo sapiens, UniProt P41595). The data set is classed as functional.
Chain of 5-hydroxytryptamine receptor 2B (P41595 whole entry): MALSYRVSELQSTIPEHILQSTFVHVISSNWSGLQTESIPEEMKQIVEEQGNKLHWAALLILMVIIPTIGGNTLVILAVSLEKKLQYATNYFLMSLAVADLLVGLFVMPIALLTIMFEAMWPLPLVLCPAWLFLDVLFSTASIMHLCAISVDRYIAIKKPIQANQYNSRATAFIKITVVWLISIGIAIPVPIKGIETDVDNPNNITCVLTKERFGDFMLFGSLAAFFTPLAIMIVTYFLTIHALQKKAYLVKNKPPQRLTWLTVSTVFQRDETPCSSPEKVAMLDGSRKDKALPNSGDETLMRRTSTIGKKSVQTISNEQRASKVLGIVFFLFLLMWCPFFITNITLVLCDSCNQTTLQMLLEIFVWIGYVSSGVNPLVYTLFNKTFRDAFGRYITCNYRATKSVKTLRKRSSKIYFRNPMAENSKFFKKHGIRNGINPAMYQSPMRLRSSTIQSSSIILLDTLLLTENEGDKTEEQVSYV
In data set [2] the target is T2, Histamine H4 receptor (Homo sapiens, UniProt Q9H3N8). The conditions noted are these: HEK293.
T2 sequence (Q9H3N8 whole entry): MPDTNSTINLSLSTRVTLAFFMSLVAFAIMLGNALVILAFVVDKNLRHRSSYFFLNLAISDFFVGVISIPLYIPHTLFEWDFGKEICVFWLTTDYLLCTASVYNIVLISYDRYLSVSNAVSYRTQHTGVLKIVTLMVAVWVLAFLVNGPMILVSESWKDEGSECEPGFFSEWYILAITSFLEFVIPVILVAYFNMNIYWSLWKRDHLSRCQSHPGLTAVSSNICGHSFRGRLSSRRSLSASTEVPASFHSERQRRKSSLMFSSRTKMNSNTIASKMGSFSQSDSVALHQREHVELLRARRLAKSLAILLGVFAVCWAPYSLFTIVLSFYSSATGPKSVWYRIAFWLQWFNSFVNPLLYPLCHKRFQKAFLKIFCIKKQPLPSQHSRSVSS
The target in data set [3] is Histamine H3 receptor (Homo sapiens, UniProt Q9Y5N1).
Chain of Histamine H3 receptor (Homo sapiens, UniProt Q9Y5N1) (Q9Y5N1 whole entry): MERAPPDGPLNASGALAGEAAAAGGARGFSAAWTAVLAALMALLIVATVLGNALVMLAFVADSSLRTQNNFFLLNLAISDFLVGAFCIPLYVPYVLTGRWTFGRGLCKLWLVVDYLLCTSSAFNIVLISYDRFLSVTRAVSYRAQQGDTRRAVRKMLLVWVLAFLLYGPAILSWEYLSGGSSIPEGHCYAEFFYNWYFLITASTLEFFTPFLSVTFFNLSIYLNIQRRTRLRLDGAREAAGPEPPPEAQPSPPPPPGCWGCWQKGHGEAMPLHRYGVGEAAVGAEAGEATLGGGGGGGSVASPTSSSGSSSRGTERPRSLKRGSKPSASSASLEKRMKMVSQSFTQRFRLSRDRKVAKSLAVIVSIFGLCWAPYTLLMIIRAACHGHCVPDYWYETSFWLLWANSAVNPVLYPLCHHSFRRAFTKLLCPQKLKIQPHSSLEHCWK
A short description of the next data set: in vitro. The conditions noted are these: Sprague-Dawley, rat, plasma.
Data set [4] concerns the target Histamine H3 receptor (Rattus norvegicus, UniProt Q9QYN8).
A short description of data set [5]: in vivo. The conditions noted are these: Sprague-Dawley, rat, po, 10 mg/kg.
The species entered for data set [6] is Mus musculus. It counts as functional, organism-based, BALB/c.
Data set [7] is described as follows: in vivo. The conditions noted are these: Sprague-Dawley, rat, ip, 10 mg/kg.
The target in data set [8] is T3, C-C chemokine receptor type 1 (Homo sapiens, UniProt P32246).
T3 sequence (P32246 whole entry): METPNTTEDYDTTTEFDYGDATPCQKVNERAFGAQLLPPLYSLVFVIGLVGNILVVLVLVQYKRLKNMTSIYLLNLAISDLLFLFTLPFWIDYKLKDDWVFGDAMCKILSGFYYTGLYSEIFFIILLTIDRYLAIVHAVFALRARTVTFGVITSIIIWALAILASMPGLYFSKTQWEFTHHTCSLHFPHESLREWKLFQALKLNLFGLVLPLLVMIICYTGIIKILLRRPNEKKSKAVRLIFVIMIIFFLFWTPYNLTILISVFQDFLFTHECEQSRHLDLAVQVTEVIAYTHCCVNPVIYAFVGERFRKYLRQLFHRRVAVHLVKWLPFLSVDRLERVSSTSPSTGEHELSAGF

The species named for data set [9] is Rattus norvegicus. The conditions noted are these: in vivo, ip, 100 umol/kg.
The species named for data set [10] is Mus musculus. Description: animal or person. The data set is classed as functional. The conditions noted are these: CD-1(ICR), ip.
Data set [11] is filed under the species Rattus norvegicus. The conditions noted are these: in vivo, ip, 30 umol/kg.
The target of data set [12] is Histamine H4 receptor (Rattus norvegicus, UniProt Q91ZY1). The data set is described as follows: biochemical. The data set is classed as cell-based, HEK293.
Chain of Histamine H4 receptor (Rattus norvegicus, UniProt Q91ZY1) (Q91ZY1 whole entry): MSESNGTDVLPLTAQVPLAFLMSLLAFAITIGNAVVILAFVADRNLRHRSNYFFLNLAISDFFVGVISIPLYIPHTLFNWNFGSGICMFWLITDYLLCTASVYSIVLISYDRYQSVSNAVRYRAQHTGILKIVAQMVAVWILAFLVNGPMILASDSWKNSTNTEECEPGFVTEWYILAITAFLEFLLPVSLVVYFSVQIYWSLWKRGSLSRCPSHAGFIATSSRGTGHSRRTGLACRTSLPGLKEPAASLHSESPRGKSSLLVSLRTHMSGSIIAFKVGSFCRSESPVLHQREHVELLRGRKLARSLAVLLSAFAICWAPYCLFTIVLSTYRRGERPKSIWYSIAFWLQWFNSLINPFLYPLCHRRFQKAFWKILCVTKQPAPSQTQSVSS
Data set [13] deals with Histamine H4 receptor (Rattus norvegicus) (UniProt Q91ZY1).
Chain of Histamine H4 receptor (Rattus norvegicus) (Q91ZY1 whole entry): as above
Data set [14] deals with T4, 5-hydroxytryptamine receptor 2C (Homo sapiens, UniProt P28335).
T4 sequence (P28335 whole entry): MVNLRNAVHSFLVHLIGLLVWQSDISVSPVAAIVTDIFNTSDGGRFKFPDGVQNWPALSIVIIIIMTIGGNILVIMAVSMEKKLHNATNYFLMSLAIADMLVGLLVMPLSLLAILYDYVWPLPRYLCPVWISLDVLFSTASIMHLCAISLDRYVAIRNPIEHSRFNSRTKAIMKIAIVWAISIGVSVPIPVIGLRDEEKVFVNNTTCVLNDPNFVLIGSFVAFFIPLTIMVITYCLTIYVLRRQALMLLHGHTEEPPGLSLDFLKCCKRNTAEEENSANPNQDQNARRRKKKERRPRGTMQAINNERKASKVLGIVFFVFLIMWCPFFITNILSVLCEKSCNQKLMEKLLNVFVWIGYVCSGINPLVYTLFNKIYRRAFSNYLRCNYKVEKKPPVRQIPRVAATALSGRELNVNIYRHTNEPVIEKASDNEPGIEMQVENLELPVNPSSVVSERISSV

For data set [15], the species on record is Mus musculus. The conditions noted are these: CD-1(ICR), in vivo, ip, 0.3 umol/kg.
Data set [16] in a line: in vivo. The conditions noted are these: Sprague-Dawley, rat, po, 10 mg/kg. The source holds these as a separate data set.
The target in another data set is T5, Substance-K receptor (Homo sapiens, UniProt P21452).
T5 sequence (P21452 whole entry): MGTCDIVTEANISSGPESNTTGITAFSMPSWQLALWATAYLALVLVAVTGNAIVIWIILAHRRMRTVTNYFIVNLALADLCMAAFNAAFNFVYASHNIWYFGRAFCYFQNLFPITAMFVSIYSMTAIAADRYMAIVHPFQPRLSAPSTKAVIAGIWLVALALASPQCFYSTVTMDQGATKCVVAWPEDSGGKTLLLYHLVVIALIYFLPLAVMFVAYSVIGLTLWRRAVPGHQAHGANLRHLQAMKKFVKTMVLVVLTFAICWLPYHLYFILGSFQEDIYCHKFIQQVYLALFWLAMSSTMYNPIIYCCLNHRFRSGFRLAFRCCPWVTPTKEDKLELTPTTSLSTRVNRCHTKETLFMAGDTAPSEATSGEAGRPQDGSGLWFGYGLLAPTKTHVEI

For data set [17], the species on record is Rattus norvegicus. Description: animal or person. The conditions noted are these: ip. It counts as functional.
Data set [18] has as its target T6, Histamine H4 receptor (Mus musculus) (UniProt Q91ZY2).
T6 sequence (whole entry): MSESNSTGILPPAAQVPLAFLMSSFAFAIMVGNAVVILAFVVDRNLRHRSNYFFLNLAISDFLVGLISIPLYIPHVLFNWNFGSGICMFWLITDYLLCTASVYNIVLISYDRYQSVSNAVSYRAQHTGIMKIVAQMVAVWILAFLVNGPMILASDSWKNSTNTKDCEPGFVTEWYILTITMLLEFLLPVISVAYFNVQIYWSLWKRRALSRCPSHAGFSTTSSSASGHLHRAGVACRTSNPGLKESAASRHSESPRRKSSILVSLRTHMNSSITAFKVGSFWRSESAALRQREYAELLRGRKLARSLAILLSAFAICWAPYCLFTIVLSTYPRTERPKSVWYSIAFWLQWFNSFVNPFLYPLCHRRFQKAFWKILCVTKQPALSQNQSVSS

Data set [19] in a line: in vivo. The conditions noted are these: Sprague-Dawley, rat, ip, 10 mg/kg. This is another data set of the same source.
A short description of data set [20]: in vivo. The conditions noted are these: Sprague-Dawley, rat, po, 10 mg/kg. This is another data set of the same source.
Data set [21] concerns the target T2, Histamine H4 receptor. The data set is described as follows: biochemical. The data set is classed as cell-based, HEK293.
Data set [22] is described as follows: in vivo. The conditions noted are these: Sprague-Dawley, rat, po, 10 mg/kg. This is another data set of the same source.
Data set [23] is described as follows: in vivo. The conditions noted are these: Sprague-Dawley, rat, ip, 10 mg/kg. This is another data set of the same source.
A short description of data set [24]: in vivo. The conditions noted are these: Sprague-Dawley, rat, ip, 10 mg/kg. The source holds these as a separate data set.
Data set [25] has as its target T7, Muscarinic acetylcholine receptor M5 (Homo sapiens, UniProt P08912).
T7 sequence (P08912 whole entry): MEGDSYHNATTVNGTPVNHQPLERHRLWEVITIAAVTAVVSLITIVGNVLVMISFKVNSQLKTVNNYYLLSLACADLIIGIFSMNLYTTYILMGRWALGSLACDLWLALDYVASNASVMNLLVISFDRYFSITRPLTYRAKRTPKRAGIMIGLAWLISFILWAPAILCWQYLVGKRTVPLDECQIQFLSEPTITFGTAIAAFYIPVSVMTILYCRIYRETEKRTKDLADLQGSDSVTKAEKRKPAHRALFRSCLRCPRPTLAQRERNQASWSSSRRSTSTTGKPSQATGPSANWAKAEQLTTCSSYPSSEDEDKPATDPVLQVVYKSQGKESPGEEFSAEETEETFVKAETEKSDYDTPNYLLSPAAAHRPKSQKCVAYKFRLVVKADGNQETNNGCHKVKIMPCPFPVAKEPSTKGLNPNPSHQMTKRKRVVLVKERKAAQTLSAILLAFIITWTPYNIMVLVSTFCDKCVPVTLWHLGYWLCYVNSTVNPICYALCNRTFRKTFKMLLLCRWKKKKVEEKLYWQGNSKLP

The target of data set [26] is Small conductance calcium-activated potassium channel protein 1 (Homo sapiens, UniProt Q92952).
Chain of Small conductance calcium-activated potassium channel protein 1 (Q92952 whole entry): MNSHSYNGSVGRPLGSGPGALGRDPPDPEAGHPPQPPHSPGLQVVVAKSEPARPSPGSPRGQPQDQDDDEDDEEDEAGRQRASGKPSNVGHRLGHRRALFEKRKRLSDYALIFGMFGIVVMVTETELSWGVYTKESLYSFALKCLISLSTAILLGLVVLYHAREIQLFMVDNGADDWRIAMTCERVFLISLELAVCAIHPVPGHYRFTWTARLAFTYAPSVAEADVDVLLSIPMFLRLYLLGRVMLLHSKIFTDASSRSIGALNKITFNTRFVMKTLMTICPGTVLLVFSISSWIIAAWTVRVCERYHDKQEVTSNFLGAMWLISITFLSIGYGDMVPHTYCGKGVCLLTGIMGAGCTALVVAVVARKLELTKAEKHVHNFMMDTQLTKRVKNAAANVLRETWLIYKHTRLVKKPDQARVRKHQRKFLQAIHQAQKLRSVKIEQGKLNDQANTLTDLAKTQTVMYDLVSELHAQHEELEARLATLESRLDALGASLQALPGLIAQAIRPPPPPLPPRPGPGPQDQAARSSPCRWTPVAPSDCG
Data set [27] has as its target T4, 5-hydroxytryptamine receptor 2C. The source holds these as a separate data set.

Chain of Vasopressin V1a receptor (P37288 whole entry): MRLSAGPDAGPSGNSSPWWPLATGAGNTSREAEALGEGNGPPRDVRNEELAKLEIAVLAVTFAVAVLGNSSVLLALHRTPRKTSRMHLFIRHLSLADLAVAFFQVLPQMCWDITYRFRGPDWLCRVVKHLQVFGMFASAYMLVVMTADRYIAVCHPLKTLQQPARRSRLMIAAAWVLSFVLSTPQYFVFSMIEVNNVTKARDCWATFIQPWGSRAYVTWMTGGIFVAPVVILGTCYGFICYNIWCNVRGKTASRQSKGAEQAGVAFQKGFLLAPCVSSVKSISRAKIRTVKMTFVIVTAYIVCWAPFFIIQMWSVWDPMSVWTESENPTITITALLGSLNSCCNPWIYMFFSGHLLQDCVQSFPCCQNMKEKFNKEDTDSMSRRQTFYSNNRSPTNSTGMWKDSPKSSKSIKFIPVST
Chain of Histamine H2 receptor (P25021 whole entry): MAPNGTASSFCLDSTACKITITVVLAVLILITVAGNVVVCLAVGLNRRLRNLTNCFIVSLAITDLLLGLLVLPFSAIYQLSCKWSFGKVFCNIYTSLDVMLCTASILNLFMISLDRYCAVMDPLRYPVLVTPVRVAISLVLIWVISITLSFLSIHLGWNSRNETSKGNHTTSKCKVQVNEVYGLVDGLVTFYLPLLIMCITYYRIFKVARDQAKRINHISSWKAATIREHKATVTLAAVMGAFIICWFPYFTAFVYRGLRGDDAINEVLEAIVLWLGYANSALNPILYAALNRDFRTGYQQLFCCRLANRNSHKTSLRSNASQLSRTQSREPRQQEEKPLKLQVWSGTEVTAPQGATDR
Chain of Histamine H3 receptor (Rattus norvegicus, UniProt Q9QYN8) (Q9QYN8 whole entry): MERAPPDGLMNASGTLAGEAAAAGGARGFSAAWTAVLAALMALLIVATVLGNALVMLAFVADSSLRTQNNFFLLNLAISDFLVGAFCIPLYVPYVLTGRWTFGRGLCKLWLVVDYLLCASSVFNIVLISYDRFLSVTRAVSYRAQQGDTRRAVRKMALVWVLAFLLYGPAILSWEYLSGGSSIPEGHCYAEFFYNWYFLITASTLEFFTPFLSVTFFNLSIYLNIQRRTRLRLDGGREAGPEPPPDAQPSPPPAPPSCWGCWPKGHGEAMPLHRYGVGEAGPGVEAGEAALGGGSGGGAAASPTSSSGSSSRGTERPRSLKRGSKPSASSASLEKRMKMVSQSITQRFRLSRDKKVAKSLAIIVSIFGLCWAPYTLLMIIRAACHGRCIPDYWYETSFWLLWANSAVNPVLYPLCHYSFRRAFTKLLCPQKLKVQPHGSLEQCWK
Chain of Histamine H1 receptor (P35367 whole entry): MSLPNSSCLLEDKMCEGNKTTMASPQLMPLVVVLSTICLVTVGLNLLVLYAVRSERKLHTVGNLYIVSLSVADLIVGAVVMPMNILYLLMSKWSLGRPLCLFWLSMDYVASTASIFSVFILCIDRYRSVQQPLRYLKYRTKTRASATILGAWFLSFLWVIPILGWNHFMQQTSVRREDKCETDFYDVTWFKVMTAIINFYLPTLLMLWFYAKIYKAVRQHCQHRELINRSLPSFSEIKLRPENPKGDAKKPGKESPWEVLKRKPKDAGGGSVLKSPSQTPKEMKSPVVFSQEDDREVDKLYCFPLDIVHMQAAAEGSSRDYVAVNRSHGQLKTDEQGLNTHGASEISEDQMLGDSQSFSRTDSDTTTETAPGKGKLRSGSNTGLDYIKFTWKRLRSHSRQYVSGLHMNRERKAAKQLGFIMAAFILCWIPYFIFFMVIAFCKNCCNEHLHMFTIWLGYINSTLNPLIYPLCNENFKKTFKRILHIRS

What is called Ki is the dissociation constant of the complex between target and ligand, obtained from inhibition or displacement. On Thromboxane A2 receptor, `CCCCC[C@H](O)/C=C/[C@H]1C2COC(C2)[C@@H]1C/C=C\CCCC(=O)O` (some centres not stated) returned an IC50 of 37 nM and a Ki of 16 nM.
`COc1cc(CC(C)N)c(OC)cc1I` (racemic): in data set [1], the IC50 was 3.5 nM and the Ki was 3.5 nM.
In general, pKb refers to the negative decadic logarithm of the Kb, by convention in mol/L. By fraction unbound is commonly meant free concentration divided by total concentration. Read a low fraction unbound as little free substance. Usually Cmax stands for the maximum level reached in the sampled fluid or tissue. The term ED50 denotes the dose that gives a 50% effect, or the effect in half of the subjects. A higher ED50 goes with a need for a large dose. Usually Tmax stands for the time from dosing to the highest level. As usually defined, the bioavailability is the share of a dose that reaches the circulation, judged against a reference dose that is usually intravenous. A lower bioavailability goes with poor availability. The half-life is the time needed for the level to fall by half in the phase considered. In the case of `Nc1nc2c(c(N3CCNCC3)n1)CCC1=C2[C@@H]2CCCC[C@@H]2O1` (relative stereo), the results for the pKb (at Histamine H4 receptor [2]; in data set [13]; in data set [18]) were 8.33, 8.3 and 8.2, respectively. Also, the Ki on Histamine H3 receptor [3] is 933 nM; on Histamine H3 receptor [4], 13.5 nM; in data set [8], 0.043 nM; at Histamine H4 receptor [12] it was 3.39 nM; at Vasopressin V1a receptor it was 2.4 nM; on Substance-K receptor, 3.1 nM. The results for the Ki at Histamine H2 receptor, on Histamine H4 receptor [21] and at Histamine H1 receptor were more than 9120 nM, 5.75 nM and 3550 nM, respectively. In addition, the fraction unbound in the data set “in vitro” is 0.41. In addition, the maximum concentration (Cmax) in the data set “in vivo [5]” stood at 300 nM; in the data set “in vivo [7]”, 1730 nM. For the same compound, the IC50 in the data set filed under Mus musculus [6] was determined as 125 µmol/kg; in [8], 0.087 nM; in data set [14], 11700 nM; on Vasopressin V1a receptor, 3.9 nM; against Substance-K receptor, 5.7 nM. The Cp in the data set listed under Rattus norvegicus [9] worked out at 2900 ng/mL; in the data set listed under Rattus norvegicus [11], 610 ng/mL; in the data set filed under Mus musculus [15], 15 ng/mL. Moreover, the ED50 in the data set listed under Mus musculus [10] was 0.36 µmol/kg; in the data set filed under Rattus norvegicus [17], 42 µmol/kg. Besides, the Tmax was found to be 1.5 h in “in vivo [16]” and 0.25 h in “in vivo [19]”. Besides, the bioavailability in “in vivo [20]” came out at 26%; in “in vivo [23]” it was 72%. For the same compound, the half-life is 3.7 h in “in vivo [22]” and 4.7 h in “in vivo [24]”.
In data set [25], `C[N+]1(C)CCC(OC(=O)C(c2ccccc2)c2ccccc2)CC1` [4-DAMP] registered an IC50 of 0.83 nM and a Ki of 0.42 nM.
As for `CC(C)C[C@@H]1NC(=O)[C@H](C)NC(=O)[C@H]([C@@H](C)O)NC(=O)[C@H](CCC(=O)O)NC(=O)[C@@H]2CCCN2C(=O)[C@H](C)NC(=O)[C@H](CCCCN)NC(=O)[C@@H]2CSSC[C@@H](C(=O)N[C@@H](CCC(N)=O)C(=O)N[C@@H](CCC(N)=O)C(=O)N[C@@H](Cc3cnc[nH]3)C(N)=O)NC(=O)[C@H](CCCNC(=N)N)NC(=O)[C@H](CCCNC(=N)N)NC(=O)[C@H](C)NC(=O)[C@H](CSSC[C@H](N)C(=O)N[C@@H](CC(N)=O)C(=O)N2)NC1=O` [APAMIN], in data set [26], the IC50 was 0.014 nM and the Ki was 0.0068 nM.
At Histamine H2 receptor, `CN1CCN(C(=O)c2cc3cc(Cl)ccc3[nH]2)CC1` [JNJ-7777120] had a Ki of more than 8510 nM.
In data set [27], `COc1cc(OC)c(C(=O)CCCCN2CCC3(CC2)NC(=O)NC3=O)cc1NS(=O)(=O)c1ccc(C(F)(F)F)cc1` [RS-102,221] showed an IC50 of 8.3 nM and a Ki of 3.9 nM.
